Converted amounts (≈) assume the structure as drawn. “Also recorded” adds a separate entry of the source.
Experiments:
[1] = system: C. albicans (Strain ATCC 90028, CLSI reference); assay: Antifungal assay, MIC; format: cell-based, Candida albicans; conditions: for MIC: Candida albicans, ATCC90028
Experimental: (§1) Fungi strains C. albicans (Strain ATCC 90028, CLSI reference) and C. neoformans (Strain ATCC 208821, H99 Type strain), were cultured for 3 days on Yeast Extract-Peptone Dextrose (YPD) agar at 30 °C. A yeast suspension of 1 × 10^6 to 5 × 10^6 CFU/mL (as determined by OD530) was prepared from five colonies. The suspension was subsequently diluted and added to each well of the compound-containing plates giving a final cell density of fungi suspension of 2.5 × 10^3 CFU/mL and a total volume of 50 μL. All plates were covered and incubated at 35 °C for 36 h without shaking.
(§2) Analysis: Growth inhibition of C. albicans was determined measuring absorbance at 630 nm (OD630), while the growth inhibition of C. neoformans was determined measuring the difference in absorbance between 600 and 570 nm (OD600–570), after the addition of resazurin (0.001% final concentration) and incubation at 35 °C for 2 h. The absorbance was measured using a Biotek Multiflo Synergy HTX plate reader. In both cases, the percentage of growth inhibition was calculated for each well, using the negative control (media only) and positive control (fungi without inhibitors) on the same plate. […] Due to a higher variance in growth and inhibition, a lower threshold was applied to the data for C. neoformans.

[2] = system: S. aureus (Strain ATCC 43300, MRSA); assay: Antibacterial assay, MIC; format: cell-based, Staphylococcus aureus; conditions: for MIC: Staphylococcus aureus
Experimental: (§3) All bacteria, S. aureus (Strain ATCC 43300, MRSA), E. coli (Strain ATCC 25922, FDA control strain), K. pneumoniae (Strain ATCC 700603, MDR), A. baumannii (Strain ATCC 19606, Type strain), P. aeruginosa (Strain ATCC 27853, Quality control strain), were cultured in Cation-adjusted Mueller Hinton broth (CAMHB) at 37 °C overnight. A sample of each culture was then diluted 40-fold in fresh broth and incubated at 37 °C for 1.5–3 h. The resultant mid-log phase cultures were diluted (CFU/mL measured by OD600), then added to each well of the compound containing plates, giving a cell density of 5 × 10^5 CFU/mL and a total volume of 50 μL. All the plates were covered and incubated at 37 °C for 18 h without shaking.
(§4) Analysis: Inhibition of bacterial growth was determined measuring absorbance at 600 nm (OD600), using a Tecan M1000 Pro monochromator plate reader. The percentage of growth inhibition was calculated for each well, using the negative control (media only) and positive control (bacteria without inhibitors) on the same plate as references. […]

[3] = system: C. neoformans (Strain ATCC 208821, H99 Type strain); assay: Antifungal assay, MIC; format: cell-based, Cryptococcus neoformans var. grubii; conditions: for MIC: Cryptococcus neoformans, ATCC208821
Experimental: as §1, §2

[4] = Cytotoxicity assay (resazurin); format: cell-based; conditions: human; HEK293 cells, 20 h; unit not given in Table 1; read-out: CC50 (concentration at 50% cytotoxicity)
Experimental: (§5) HEK293 cells were counted manually in a Neubauer haemocytometer and then plated in the 384-well plates containing the compounds to give a density of 6000 cells/well in a final volume of 50 μL. DMEM supplemented with 10% FBS was used as growth media and the cells were incubated together with the compounds for 20 h at 37 °C in 5% CO2. Analysis: Cytotoxicity (or cell viability) was measured by fluorescence, ex: 560/10 nm, em: 590/10 nm (F560/590), after addition of 5 μL of 25 μgmL^−1 Resazurin (2.3 μgmL^−1 final concentration) and after incubation for further 3h at 37 °C in 5% CO2. The fluorescence intensity was measured using a Tecan M1000 Pro monochromator plate reader, using automatic gain calculation CC50 (concentration at 50% cytotoxicity) were calculated by curve fitting the inhibition values vs. log(concentration) using sigmoidal dose-response function, with variable fitting values for bottom, top and slope.

[5] = system: A. baumannii (Strain ATCC 19606, Type strain); assay: Antibacterial assay, MIC; format: cell-based, Acinetobacter baumannii; conditions: for MIC: Acinetobacter baumannii, ATCC19606
Experimental: as §3, §4

[6] = system: haemolytic activity; assay: Haemolysis assay; format: cell-based; conditions: for Hc10 (concentration at 10% haemolytic activity): unit not given
Experimental: Hc10 (concentration at 10% haemolytic activity) was calculated by curve fitting the inhibition values vs. log(concentration) using a Sigmoidal dose-response function, with variable values for bottom, top and slope. The curve fitting is implemented using Pipeline Pilot’s dose-response component (giving similar results to similar tools such as GraphPad’s Prism and IDBS’s XlFit). […] DMax represents the highest percentage inhibition response for all concentrations tested. […] In addition, the value indicates if samples have been active, but curve fitting failed, mostly because only the single highest concentration was active.

[7] = system: Staphylococcus aureus, Acinetobacter baumannii, Candida albicans and Cryptococcus neoformans var. grubii; assay: Initial antimicrobial screen (CO-ADD); format: cell-based; conditions: 10 μM; Active / Inactive
Excerpt: We then screened this series of 1,2,3-dithiazoles and 1,2,3-thiaselenazoles (8−15) against Staphylococcus aureus, Acinetobacter baumannii, Candida albicans and Cryptococcus neoformans var. grubii (Table 1) as part of the Community for Antimicrobial Drug Discovery (CO-ADD) initiative to develop new lead compounds [51]. These represent three distinct classes of microbes. Staphylococcus aureus (ATCC 43300) is a gram-positive bacterium derived from the super bug methicillin-resistant Staphylococcus aureus (MRSA). Acinetobacter baumannii (ATCC 19606) is a gram-negative bacterium hospital-derived infection with very few antibiotics that can treat this pathogen. Candida albicans (ATCC 90028) and Cryptococcus neoformans var. grubii (ATCC 208821) are both opportunistic fungi. These fungal pathogens are particularly dangerous for patients in hospital with immunodeficiencies, undergoing cancer chemotherapy and organ transplantation. These strains are considered by the World Health Organization (WHO) to be the highest priority to develop novel antibiotics for control of these bacteria and fungi. These are some of the most difficult to treat, particularly in a hospital setting where sepsis and pneumonia can quickly overcome the body’s immune system.
The 1,2,3-thiaselenazole analog (13) was potent on against three of the four pathogens with a similar profile to 9a without the activity on A. baumannii.
Antimicrobial screening was performed by CO-ADD (The Community for Antimicrobial Drug Discovery), Australia.
as §3, §4
as §1, with “shaking. […]” for “shaking.”

[8] = system: L1210; parameters: method as in PMID 19036587, PMID 23010140, PMID 28709952; conditions: cited from earlier work
[9] = system: K562; parameters: method as in PMID 19036587, PMID 23010140, PMID 28709952; conditions: cited from earlier work
[10] = system: HEK293 cells; assay: Cytotoxicity assay (resazurin); format: cell-based
Experimental: as §5

[11] = ATCC 43300 (MRSA), MIC = lowest concentration with inhibition ≥80%
[12] = ATCC 208821, inhibition ≥70% (method)
[13] = ATCC 19606, MIC = lowest concentration with inhibition ≥80%

ClC1=C2S[Se]N=C2c2ccccc2C(Cl)=C1Cl [Compound 13, 4,5,6-Trichlorobenzo[6,7]cyclohepta[1,2-d][1,2,3]thiaselenazole]
MIC ([1]; ATCC 90028, inhibition ≥80%): ≤ 0.25 µg/mL
MIC [2, 11]: ≤ 0.25 µg/mL
MIC [3, 12]: ≤ 0.25 µg/mL
melting point: 144 to 145 °C
CC50 at 20 h [4]: 0.48 µg/mL (≈ 1.31 µM)
MIC [5, 13]: > 32 µg/mL
Hc10 (concentration at 10% haemolytic activity) [6]: >32

Clc1c2nssc-2c(Cl)c1Cl [Compound 10a, 4,5,6-Trichlorocyclopenta[d][1,2,3]dithiazole]
melting point: 122 to 124 °C
Initial Screen [7]: Inactive

N#Cc1cnn(CCc2ccccc2)c1/N=c1/ssnc1Cl [Compound 1]
IC50 [8]: 5 µM
IC50 [9]: 3 µM

Clc1c2n[se]sc-2c(Cl)c1Cl [Compound 11a, 4,5,6-Trichlorocyclopenta[d][1,2,3]thiaselenazole]
Activity against C. albicans (in words) [1]: very potent
MIC ([1]; ATCC 90028, inhibition ≥80%): ≤ 0.25 µg/mL
Activity against S. aureus (in words) [2]: very potent
MIC [2, 11]: ≤ 0.25 µg/mL
Activity against C. neoformans (in words) [3]: very potent
MIC [3, 12]: ≤ 0.25 µg/mL
melting point: 117 to 119 °C
CC50 at 20 h [4]: 0.52 µg/mL (≈ 1.78 µM)
Activity against A. baumannii (in words) [5]: very potent
MIC [5, 13]: ≤ 0.25 µg/mL
Haemolysis (in words) [6]: no haemolysis
Hc10 (concentration at 10% haemolytic activity) [6]: >32

CCOC(=O)c1c2n[se]sc-2c(Cl)c1Cl [Compound 11c, Ethyl 5,6-dichlorocyclopenta[d][1,2,3]thiaselenazole-4-carboxylate]
MIC ([1]; ATCC 90028, inhibition ≥80%): ≤ 0.25 µg/mL
MIC [2, 11]: ≤ 0.25 µg/mL
MIC [3, 12]: ≤ 0.25 µg/mL
melting point: 188 to 190 °C
CC50 at 20 h [4]: 7 µg/mL (≈ 21.3 µM)
MIC [5, 13]: > 32 µg/mL
Haemolysis (in words) [6]: no haemolysis
Hc10 (concentration at 10% haemolytic activity) [6]: >32

ClC1=C2SSN=C2c2ccccc2C(Cl)=C1Cl [Compound 12, 4,5,6-Trichlorobenzo[6,7]cyclohepta[1,2-d][1,2,3]dithiazole]
melting point: 119 to 121 °C
Initial Screen [7]: Inactive

c1ccc(-c2c3ssnc-3c3ccccc23)cc1 [Compound 8a]
Activity against C. albicans (in words) [1]: antifungal selective
Activity against C. neoformans (in words) [3]: antifungal selective
Toxicity (in words) [10]: no toxicity or haemolysis
Haemolysis (in words) [6]: no toxicity or haemolysis
Initial Screen [7]: Inactive

N#Cc1c2n[se]sc-2c(Cl)c1Cl [Compound 11b, 5,6-Dichlorocyclopenta[d][1,2,3]thiaselenazole-4-carbonitrile]
MIC ([1]; ATCC 90028, inhibition ≥80%): ≤ 0.25 µg/mL
Activity against S. aureus (in words) [2]: potent
MIC [2, 11]: ≤ 0.25 µg/mL
MIC [3, 12]: ≤ 0.25 µg/mL
melting point: 171 to 173 °C
CC50 at 20 h [4]: > 32 µg/mL
MIC [5, 13]: > 32 µg/mL
Hc10 (concentration at 10% haemolytic activity) [6]: >32

8-Chloroindeno[1,2-d][1,2,3]thiaselenazole [Compound 9a]
Antifungal C. albicans MIC ([1]; ATCC 90028, inhibition ≥80%): ≤0.25 µg/mL
Antibacterial S. aureus MIC [2, 11]: >32 µg/mL
Antifungal C. neoformans MIC [3, 12]: ≤0.25 µg/mL
CC50 (concentration at 50% cytotoxicity) ([10]; 20 h, unit not given in Table 1): >32 µM
Antibacterial A. baumannii MIC [5, 13]: >32 µg/mL
Hc10 (concentration at 10% haemolytic activity) [6]: >32

c1ccc2c(c1)N=C1SSN=C1O2 [Compound 14, Benzo[b][1,2,3]dithiazolo[5,4-e][1,4]oxazine]
melting point: 182 to 184 °C
Initial Screen [7]: not fruitful; also recorded: Inactive

CCOC(=O)c1c2nssc-2c(Cl)c1Cl [Compound 10c, Ethyl 5,6-dichlorocyclopenta[d][1,2,3]dithiazole-4-carboxylate]
Activity against C. albicans (in words) [1]: selective for C. albicans
MIC ([1]; ATCC 90028, inhibition ≥80%): ≤ 0.25 µg/mL
MIC [2, 11]: > 32 µg/mL
MIC [3, 12]: > 32 µg/mL
melting point: 80 to 82 °C
CC50 at 20 h [4]: > 32 µg/mL
Toxicity (in words) [10]: no toxicity
MIC [5, 13]: > 32 µg/mL
Hc10 (concentration at 10% haemolytic activity) [6]: >32

c1ccc2c(c1)N=C1S[Se]N=C1O2 [Compound 15, Benzo[b][1,2,3]thiaselenazolo[5,4-e][1,4]oxazine]
Activity against C. albicans (in words) [1]: recovered some antifungal activity
MIC ([1]; ATCC 90028, inhibition ≥80%): ≤ 0.25 µg/mL
MIC [2, 11]: > 32 µg/mL
Activity against C. neoformans (in words) [3]: recovered some antifungal activity
MIC [3, 12]: 2 µg/mL
melting point: 178 to 180 °C
CC50 at 20 h [4]: > 32 µg/mL
Toxicity (in words) [10]: no toxicity
MIC [5, 13]: > 32 µg/mL
Hc10 (concentration at 10% haemolytic activity) [6]: >32

8-Phenylindeno[1,2-d][1,2,3]thiaselenazole [Compound 9b]
Initial Screen [7]: Inactive

N#Cc1c2nssc-2c(Cl)c1Cl [Compound 10b, 5,6-Dichlorocyclopenta[1,2,3]dithiazole-4-carbonitrile]
Activity against C. albicans (in words) [1]: maintained activity
MIC ([1]; ATCC 90028, inhibition ≥80%): ≤ 0.25 µg/mL
Activity against S. aureus (in words) [2]: removed all activity
MIC [2, 11]: > 32 µg/mL
Activity against C. neoformans (in words) [3]: maintained activity
MIC [3, 12]: ≤ 0.25 µg/mL
melting point: 217 to 219 °C
CC50 at 20 h [4]: > 32 µg/mL
Toxicity (in words) [10]: no toxicity
Activity against A. baumannii (in words) [5]: removed all activity
MIC [5, 13]: > 32 µg/mL
Hc10 (concentration at 10% haemolytic activity) [6]: >32
